PMC11210812, “Assessment of polymeric mucin–drug interactions” (PLOS ONE, 2024)

How the values were obtained:
Test in all cases: mucin fluorescence quenching, Lineweaver-Burk fit
Format in all cases: binding
MUC5AC = target: T1, MUC5AC (Homo sapiens, UniProt P98088); conditions: for Kd (μM) / MUC5AC: PBS pH 7.4, 37 °C, unreliable (Kd above highest concentration tested)
T1 construct: native secreted polymeric gel-forming mucin, O-glycosylated, disulfide-linked; purified from human cell culture by two-step CsCl density gradient
Text: mucin fluorescence quenching, Lineweaver-Burk fit on MUC5AC

MUC5B = target: T2, MUC5B (Homo sapiens, UniProt Q9HC84); conditions: for Kd (μM) / MUC5B: PBS pH 7.4, 37 °C, unreliable (Kd above highest concentration tested)
T2 construct: native secreted polymeric gel-forming mucin, O-glycosylated, disulfide-linked; purified from human cell culture by two-step CsCl density gradient
Text: mucin fluorescence quenching, Lineweaver-Burk fit on MUC5B

MUC2 = target: T3, MUC2 (Homo sapiens, UniProt Q02817); conditions: for Kd (μM) / MUC2: PBS pH 7.4, 37 °C, unreliable (Kd above highest concentration tested)
T3 construct: native secreted polymeric gel-forming mucin, O-glycosylated, disulfide-linked; purified from human cell culture by two-step CsCl density gradient
Text: mucin fluorescence quenching, Lineweaver-Burk fit on MUC2

Row | SMILES | Kd (MUC5AC) [µM] | Kd (MUC5B) [µM] | Kd (MUC2) [µM] | Kd (μM) / MUC5B (MUC5B; drug 0-200 μM) [µM] | Kd (μM) / MUC2 (MUC2; drug 0-200 μM) [µM] | further results
1 | O=c1[nH]cc(F)c(=O)[nH]1 [5-Fluorouracil] | 124 ± 1.5 | 143 ± 17 | 136 ± 12.1 | – | – | –
2 | Cc1cc(=O)n(-c2ccccc2)n1C [Antipyrine] | – | – | – | 386.0 ± 49.3 | 393.1 ± 26.2 | Kd (μM) / MUC5AC (MUC5AC; drug 0-200 μM): 302.0 ± 6.7 µM
3 | COC1=CC(=O)C[C@@H](C)[C@]12Oc1c(Cl)c(OC)cc(OC)c1C2=O [Griseofulvin] | – | – | – | – | – | Kd (μM) / MUC5AC (MUC5AC; drug 0-20 μM): 25.4 ± 1.6 µM; Kd (μM) / MUC5B (MUC5B; drug 0-20 μM): 29.9 ± 5.0 µM; Kd (μM) / MUC2 (MUC2; drug 0-20 μM): 45.3 ± 9.6 µM
4 | CC(=O)O[C@H]1C(=O)[C@@]2(C)[C@H]([C@H](OC(=O)c3ccccc3)[C@]3(O)C[C@H](OC(=O)[C@H](O)[C@@H](NC(=O)c4ccccc4)c4ccccc4)C(C)=C1C3(C)C)[C@]1(OC(C)=O)CO[C@@H]1C[C@@H]2O [Paclitaxel] | 87.6 ± 7 | – | 163 ± 39.1 | 288.0 ± 24.9 | – | –
5 | CO[C@H]1/C=C/O[C@@]2(C)Oc3c(C)c(O)c4c(O)c(c(/C=N/N5CCN(C)CC5)c(O)c4c3C2=O)NC(=O)/C(C)=C\C=C\[C@H](C)[C@H](O)[C@@H](C)[C@@H](O)[C@@H](C)[C@H](OC(C)=O)[C@@H]1C [Rifampicin] | – | – | – | – | – | Kd (μM) / MUC5AC (MUC5AC; drug 0-10 μM): 15.0 ± 1.5 µM; Kd (μM) / MUC5B (MUC5B; drug 0-10 μM): 44.5 ± 7.1 µM; Kd (μM) / MUC2 (MUC2; drug 0-10 μM): 49.7 ± 6.2 µM
6 | Cn1c(=O)c2[nH]cnc2n(C)c1=O [Theophylline] | 185 ± 5.6 | 189 ± 7.2 | – | – | 390.2 ± 46.5 | –
